# Like-named read-outs stand apart in the source and are kept apart here.
# How the values were obtained:
# [1] = test system: patients; details: background; cited from earlier work
# [2] = test system: stomach mucosa
# Protocol: The diagnoses were verified on the basis of all presently used methods for diagnosing gastroenterological diseases. […] Pentagastrin in the dosage of 6 μg/kg of body weight and histamine in the dosage of 0.1 ml of 0.1% solution were used as comparative preparations. […] Having deciphered pH-gramms, pH levels, "alkaline time" (AT), hydrogen ions secretion rate (HISR), kinetic function of acid formation (KFA) were determined.
# For this purpose the characteristics of stomach acid-forming function were studied in these volunteers after administering said preparations in different sequences.
# [3] = test system: stomach secretion in patients suffering chronic gastritis accompanied by stomach and duodenum ulcers; experiment: stomach secretion in patients with chronic gastritis accompanied by stomach and duodenum ulcers, pentagastrin after present composition; assay type: in vivo, human
# Protocol: The diagnoses were verified on the basis of all presently used methods for diagnosing gastroenterological diseases. […] Additionally intrastomach pH-metry was carried out (on an empty stomach and after taking the present composition or comparative preparations) using acidograph with aspiratory pH probe. Before introducing the present composition and comparative preparations and after that pH levels were registered and "alkaline time" was determined using Noller test. Having deciphered pH-gramms, pH levels, "alkaline time" (AT), hydrogen ions secretion rate (HISR), kinetic function of acid formation (KFA) were determined.
# [4] = test system: stomach secretion in patients suffering chronic gastritis with pentagastrinrefractive achlorhydria; experiment: stomach secretion in patients with pentagastrinrefractive achlorhydria; assay type: in vivo, human; details: stimulated secretion; M ± m
# Protocol: Additionally intrastomach pH-metry was carried out (on an empty stomach and after taking the present composition or comparative preparations) using acidograph with aspiratory pH probe. Before introducing the present composition and comparative preparations and after that pH levels were registered and "alkaline time" was determined using Noller test. Having deciphered pH-gramms, pH levels, "alkaline time" (AT), hydrogen ions secretion rate (HISR), kinetic function of acid formation (KFA) were determined.
# The effect of the present composition on stomach secretion in patients of this group has been studied.
# [5] = test system: stomach secretion in patients suffering chronic gastritis; experiment: comparative study of pentagastrin and present composition in patients suffering chronic gastritis; assay type: in vivo, human
# Protocol: With intragastric pH-metry initial levels of pH in these patients varied from 3.5 to 6.8, and after Noller test these levels increased to alkaline values (8-9) which levels remained the same during the test period (1-1.5 hours).
# [6] = test system: succinate dehydrogenase; details: mice; 4 mg/kg intrastomach, 40 min; M ± m
# [7] = test system: rats subjected to gamma-irradiation; details: rodents; cited from earlier work
# [8] = test system: stomach mucosa; details: mice, 3.5 mg/kg intrastomach, 35-45 min; M ± m
# Protocol: (§1) Stomachs were washed with water through cardiac opening and the washing from the antral opening were collected. Stomach contents (5 ml of washings) were used to determine pH, pepsin and total protein content. Stomach was refilled with water, frozen in cryostate and serial section having the thickness of 6-8 microns were made beginning from low curvature and parallel to stomach longer axis. In the sections of stomach bottom and body having a total weight of 50-90 mg, protein and nucleic acids content was determined.
# [9] = test system: stomach and liver tissues; details: in 100 mg of tissue; 3.5 mg/kg; M ± m
# Protocol: as §1
# [10] = test system: stomach mucosa; details: 3.6 mg/kg, dogs
# [11] = test system: rats (acute alcohol intoxication)
# [12] = test system: rats subjected to gamma-irradiation; details: 16 Gy, 100 mg/kg i.p. 30 min before irradiation
# Protocol: This preparation was given i.p. to a group of 10 animals 30 min. before the irradiation in the dosage of 100 mg/kg of animal weight.
# [13] = histamine stimulated secretion, an hour after present composition
# [14] = secretion in 1 h after histamine injection
# [15] = secretion in interval between stimulators (after histamine)
# [16] = stimulated secretion, pentagastrin a day after present composition, M ± m
structure (smiles),measurement,setting,value
NCCc1c[nH]cn1 [histamine],complications / side effects,[1],"nettle-rash,larynx edema, anaphylactic shock"
same,"effects on stomach acid-forming function (duration and intensity), present composition versus histamine",[2]; Tables 23 and 24,identical effects on stomach acid-forming function
same,Free hydrochloric acid,"[2]; histamine secretion, M ± m",6.5 ± 0.27 meq./liter
same,Total hydrochloric acid,"[2]; histamine secretion, M ± m",8.00 ± 0.29 meq./liter
same,Free hydrochloric acid,[2]; [13],3.90 ± 0.11 meq/liter
same,Total hydrochloric acid,[2]; [13],4.70 ± 0.12 meq/liter
same,Free hydrochloric acid,[2]; [14],6.92 ± 0.73 meq/liter
same,Total hydrochloric acid,[2]; [14],4.6 ± 0.5 meq/liter
same,Free hydrochloric acid,[2]; [15],15.3 ± 1.4 meq./liter
same,Total hydrochloric acid,[2]; [15],15.8 ± 1.6 meq./liter
CSCC[C@H](NC(=O)[C@H](Cc1c[nH]c2ccccc12)NC(=O)CCNC(=O)OC(C)(C)C)C(=O)N[C@@H](CC(=O)O)C(=O)N[C@@H](Cc1ccccc1)C(N)=O [pentagastrin],"effect on stomach secretion, comparison of the both preparations","[3]; chronic gastritis accompanying stomach and duodenum ulcers, p<0.5",nearly the same effect on stomach secretion
same,effects when present composition administered in a week after pentagastrin,[3]; p<0.5,nearly identical
same,Pepsin debit,"[3]; stimulated secretion, pentagastrin a day after present composition, M ±",5.0 ± 1.05 mg/h
same,Hydrochloric acid debit,[3]; [16],17 ± 1.44 mmol/h
same,Secretion volume,[3]; [16],178 ± 12.7 mL
same,pH,[3]; [16],1.4 ± 0.14
same,Acid secretion,[4],15.25 ± 0.86%
same,Acidity,[4],0 ± 0 mmol per liter
same,Hydrochloric acid debit,[4],0 ± 0 mmol per hour
same,Pepsin content,[4],0 ± 0 mg per ml
same,Pepsin debit,[4],0 ± 0 mg per hour
same,Stomach contents volume,[4],0.067 ± 0.15 liter per hour
same,"acidity, pepsin content, hydrochloric acid debit and pepsin debit",[5]; 12 refractory patients,remained at zero levels
same,intragastric pH after stimulation,"[5]; 12 refractory patients, from 6.51±1.06, p<0.25",4.69±0.92
same,AT reduction in Noller test,"[5]; 12 refractory patients, p<0.5",did not cause AT reduction
same,patients refractory,"[5]; chronic gastritis, pentagastrin 6 μg/kg",12 of 50
same,"effect on stomach secretion, comparison of the both preparations","[5]; patients suffering chronic gastritis, p<0.5",nearly the same effect on stomach secretion
O=C(O)CCC(=O)O [succinic acid],succinate dehydrogenase activity in liver,[6],21.8 ± 0.6 nanomoles of formazan of p-nit
same,succinate dehydrogenase activity in stomach,[6],26.3 ± 3.0 nanomoles of formazan of p-nit
same,succinate dehydrogenase activity of lymphocytes,[6],643. ± 5.1 granules of formazan of p-nitr
same,effective dosage (radioprotective),[7],2.7 g/kg of animal weight
same,Pepsin amount in stomach contents,[8],18.7 ± 2.1 µg
same,Total protein amount in stomach contents,[8],3.9 ± 0.9 mg
same,pH of stomach contents,[8],5.7 ± 0.2
same,Liver DNA content,[9],15.6 ± 2.7 µg
same,Liver RNA content,[9],74.5 ± 4.4 µg
same,Liver protein content,[9],14.4 ± 1.2 mg
same,Stomach DNA content,[9],13.1 ± 1.1 µg
same,Stomach RNA content,[9],70.0 ± 4.7 µg
same,Stomach protein content,[9],12.1 ± 0.9 mg
same,time after introduction at which effect on stomach secretion abated,[10],20 min
same,stimulation of stomach glands and fermentative activity,[10]; versus present composition,less expressed results
same,"Duration of on-side position, single ethanol injection","[11]; 1.85 mg/kg intrastomach 40 min before 25% ethanol 3.5 g/kg i.p., M ± m",1.6 ± 1.1 min
same,"Duration of on-side position, repeated ethanol injection","[11]; 1.85 mg/kg intrastomach, second 25% ethanol 3 g/kg, 60 min after leaving on-side position, M ± m",24.9 ± 3.8 min
same,alcoprotective detoxifying activity compared,"[11]; after a single ethanol injection, versus claimed composition",higher alcoprotective detoxifying activity than the claimed composition
N[C@@H](CCC(=O)N[C@@H](CS)C(=O)NCC(=O)O)C(=O)O [glutathione],mortality,[12],100%
same,life-time of rats,[12]; control 6.9 days,10.2 days
